Molecular target: T1, human PLK1 (Homo sapiens, UniProt P53350)
T1 construct: FLAG (DYKDDDDK) (N); made in house; host or cells: Sf21 insect cells, recombinant baculovirus (pFASTBAC1, Bac-to-Bac)
Experiment: PLK1 in vitro enzymatic activity assay (phosphorylation of alpha casein by recombinant PLK1)
Type: biochemical
Conditions: recombinant FLAG-tagged PLK1, alpha casein substrate, 500 nmol/L ATP, 40 min at room temperature; read-out: pIC50 (PLK1) (converted)
Protocol: PCR was performed using the vector as a template. […] After XbaI and XhoI digestion of the PCR product, the fragment was subcloned into pFASTBAC1 (Invitrogen, USA). Recombinant baculoviruses were prepared according to the procedure of the Bac-to-Bac baculovirus expression system (Invitrogen, USA). Sf21 cells were purchased from Invitrogen and grown in Sf-900 II SFM medium containing 10% fetal bovine serum, 50 μg/mL gentamicin and 0.1% pluronic F-68 (Invitrogen, USA) at 28° C. For preparation of PLK1 enzyme, Sf21 cells were infected with recombinant baculoviruses and cultured at 28° C. for 72 h.
The inhibition of PLK1 by the compounds was determined with the following assay that measures the phosphorylation of alpha casein by recombinant PLK1. Kinase reactions were performed at room temperature for 40 min in the kinase reaction buffer (25 mmol/L HEPES, pH 7.5, 10 mmol/L magnesium acetate, 1 mmol/L dithiothreitol) containing 50 ng PLK1 enzyme, 0.1 μCi [γ-^32P]ATP, 500 nmol/L ATP and 3 μg alpha casein (MP Biomedicals Inc., USA) in a final volume of 50 μL. The incubation was terminated by the addition of 10% trichloroacetic acid (Wako, Japan). Phosphorylated proteins were filtrated in GF/C filter plates (Packard, USA) with a Cell harvester (Packard, USA) and washed out free [γ-^32P]-ATP with 250 mmol/L phosphoric acid. Then, the plates were air dried for 60 min at 45° C., followed by the addition of 20 μL of MicroScint-O (Packard, USA). The radioactivity was counted by a Top-count scintillation counter (Packard, USA).

T1 sequence (P53350 with tags, fused parts or gaps): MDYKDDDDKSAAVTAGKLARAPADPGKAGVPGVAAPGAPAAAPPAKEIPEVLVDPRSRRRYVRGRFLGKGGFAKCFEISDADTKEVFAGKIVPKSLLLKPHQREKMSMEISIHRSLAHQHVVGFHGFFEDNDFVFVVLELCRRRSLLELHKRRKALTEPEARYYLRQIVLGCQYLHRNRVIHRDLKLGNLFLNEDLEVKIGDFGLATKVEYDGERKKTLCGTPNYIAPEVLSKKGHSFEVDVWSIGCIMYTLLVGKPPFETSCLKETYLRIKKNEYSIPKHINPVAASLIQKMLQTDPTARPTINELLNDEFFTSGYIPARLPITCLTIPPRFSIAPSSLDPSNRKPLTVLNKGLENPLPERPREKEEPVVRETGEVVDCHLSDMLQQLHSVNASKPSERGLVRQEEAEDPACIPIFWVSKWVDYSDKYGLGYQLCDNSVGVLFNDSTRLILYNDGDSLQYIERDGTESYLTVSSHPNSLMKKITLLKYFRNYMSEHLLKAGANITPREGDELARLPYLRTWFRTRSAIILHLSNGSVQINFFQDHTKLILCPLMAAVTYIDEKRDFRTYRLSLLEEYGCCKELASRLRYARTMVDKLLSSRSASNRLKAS

Row | Structure (SMILES) | IC50 [nM]
1 | COc1cc(C(=O)N[C@H]2CC[C@H](OP(=O)(O)O)CC2)ccc1Nc1ncc2c(n1)N(C1CCCCC1)CC(F)(F)C(=O)N2C [Compound 41, (1R,4R)-4-(4-(9-cyclohexyl-7,7-difluoro-5-methyl-6-oxo-6,7,8,9-tetrahydro-5H-pyrimido[4,5-b][1,4]diazepin-2-ylamino)-3-methoxybenzamido)cyclohexyl dihydrogen phosphate] | ≤ 2
2 | COc1cc(C(=O)N[C@H]2CCCNC2)ccc1Nc1ncc2c(n1)N(C1CCCC1)CC(F)(F)C(=O)N2C [Compound 9, (S)-4-(9-cyclopentyl-7,7-difluoro-5-methyl-6-oxo-6,7,8,9-tetrahydro-5H-pyrimido[4,5-b][1,4]diazepin-2-ylamino)-3-methoxy-N-(piperidin-3-yl)benzamide] | ≤ 2
3 | COc1cc(C(=O)NC2CC3CCC(C2)N3C)ccc1Nc1ncc2c(n1)N(C1CCCCC1)CC(F)(F)C(=O)N2C (centres unmarked) [Compound 51, 4-(9-cyclohexyl-7,7-difluoro-5-methyl-6-oxo-6,7,8,9-tetrahydro-5H-pyrimido[4,5-b][1,4]diazepin-2-ylamino)-3-methoxy-N-(8-methyl-8-azabicyclo[3.2.1]octan-3-yl)benzamide] | ≤ 2
4 | COc1cc(C(=O)NC2CCN(C(=O)CN3CCCC3)CC2)ccc1Nc1ncc2c(n1)N(C1CCCC1)CC(F)(F)C(=O)N2C [Compound 12, 4-(9-cyclopentyl-7,7-difluoro-5-methyl-6-oxo-6,7,8,9-tetrahydro-5H-pyrimido[4,5-b][1,4]diazepin-2-ylamino)-3-methoxy-N-(1-(2-(pyrrolidin-1-yl)acetyl)piperidin-4-yl)benzamide] | > 2
5 | COc1cc(C(=O)N[C@@H]2CCCC[C@H]2O)ccc1Nc1ncc2c(n1)N(C1CCCCC1)CC(F)(F)C(=O)N2C (racemic) [Compound 48, 4-(9-cyclohexyl-7,7-difluoro-5-methyl-6-oxo-6,7,8,9-tetrahydro-5H-pyrimido[4,5-b][1,4]diazepin-2-ylamino)-N-((trans)-2-hydroxycyclohexyl)-3-methoxybenzamide] | ≤ 2
6 | COc1cc(C(=O)N[C@@H]2CCCNC2)ccc1Nc1ncc2c(n1)N(C1CCCCC1)CC(F)(F)C(=O)N2C [Compound 38, (R)-4-(9-cyclohexyl-7,7-difluoro-5-methyl-6-oxo-6,7,8,9-tetrahydro-5H-pyrimido[4,5-b][1,4]diazepin-2-ylamino)-3-methoxy-N-(piperidin-3-yl)benzamide] | ≤ 2
7 | COc1cc(C(=O)N[C@H]2CCCNC2)ccc1Nc1ncc2c(n1)N(C1CCCCC1)CC(F)(F)C(=O)N2C [Compound 37, (S)-4-(9-cyclohexyl-7,7-difluoro-5-methyl-6-oxo-6,7,8,9-tetrahydro-5H-pyrimido[4,5-b][1,4]diazepin-2-ylamino)-3-methoxy-N-(piperidin-3-yl)benzamide] | > 2
8 | COc1cc(C(=O)N[C@H]2CC[C@H](O)CC2)ccc1Nc1ncc2c(n1)N(C1CCCCC1)CC(F)(F)C(=O)N2C [Compound 40, 4-(9-cyclohexyl-7,7-difluoro-5-methyl-6-oxo-6,7,8,9-tetrahydro-5H-pyrimido[4,5-b][1,4]diazepin-2-ylamino)-N-((1r,4r)-4-hydroxycyclohexyl)-3-methoxybenzamide] | ≤ 2
9 | COc1cc(C(=O)NC2CNC2)ccc1Nc1ncc2c(n1)N(C1CCCCC1)CC(F)(F)C(=O)N2C [Compound 43, N-(azetidin-3-yl)-4-(9-cyclohexyl-7,7-difluoro-5-methyl-6-oxo-6,7,8,9-tetrahydro-5H-pyrimido[4,5-b][1,4]diazepin-2-ylamino)-3-methoxybenzamide] | ≤ 2
10 | CN1C(=O)C(F)(F)CN(C2CCCC2)c2nc(Nc3ccc4[nH]ccc4c3)ncc21 [Compound 20, 2-(1H-Indol-5-ylamino)-9-cyclopentyl-7,7-difluoro-5-methyl-8,9-dihydro-5H-pyrimido[4,5-b][1,4]diazepin-6(7H)-one] | > 2
11 | CCN1CCC(NC(=O)c2ccc(Nc3ncc4c(n3)N(C3CCCC3)CC(F)(F)C(=O)N4C)c(OC)c2)CC1 [Compound 7, 4-(9-cyclopentyl-7,7-difluoro-5-methyl-6-oxo-6,7,8,9-tetrahydro-5H-pyrimido[4,5-b][1,4]diazepin-2-ylamino)-N-(1-ethylpiperidin-4-yl)-3-methoxybenzamide] | > 2
12 | COc1cc(C(=O)NC[C@@H](C)O)ccc1Nc1ncc2c(n1)N(C1CCCCC1)CC(F)(F)C(=O)N2C [Compound 62, (R)-4-(9-cyclohexyl-7,7-difluoro-5-methyl-6-oxo-6,7,8,9-tetrahydro-5H-pyrimido[4,5-b][1,4]diazepin-2-ylamino)-N-(2-hydroxypropyl)-3-methoxybenzamide] | ≤ 2

Other lines, results leading:

Row | IC50 [nM] | Structure (SMILES)
13 | ≤ 2 | COc1cc(C(=O)NC2CCOCC2)ccc1Nc1ncc2c(n1)N(C1CCCCC1)CC(F)(F)C(=O)N2C [Compound 66, 4-(9-cyclohexyl-7,7-difluoro-5-methyl-6-oxo-6,7,8,9-tetrahydro-5H-pyrimido[4,5-b][1,4]diazepin-2-ylamino)-3-methoxy-N-(tetrahydro-2H-pyran-4-yl)benzamide]
14 | ≤ 2 | COc1cc(C(=O)NN2CCN(CC3CC3)CC2)ccc1Nc1ncc2c(n1)N(C1CCCCC1)CC(F)(F)C(=O)N2C [Compound 80, 4-(9-cyclohexyl-7,7-difluoro-5-methyl-6-oxo-6,7,8,9-tetrahydro-5H-pyrimido[4,5-b][1,4]diazepin-2-ylamino)-N-(4-(cyclopropylmethyl)piperazin-1-yl)-3-methoxybenzamidemethoxybenzamide]
15 | > 2 | C=C[C@@]1(F)CN(C2CCCC2)c2nc(Nc3ccc(C(=O)NC4CCN(CCO)CC4)cc3OC)ncc2N(C)C1=O [Compound 106, (R)-4-(9-cyclopentyl-7-fluoro-5-methyl-6-oxo-7-vinyl-6,7,8,9-tetrahydro-5H-pyrimido[4,5-b][1,4]diazepin-2-ylamino)-N-(1-(2-hydroxyethyl)piperidin-4-yl)-3-methoxybenzamide]
16 | > 2 | COc1cc(C(=O)N2CCN(CC3CC3)CC2)c(F)cc1Nc1ncc2c(n1)N(C1CCCC1)CC(F)(F)C(=O)N2C [Compound 135, 9-cyclopentyl-2-(4-(4-(cyclopropylmethyl)piperazine-1-carbonyl)-5-fluoro-2-methoxyphenylamino)-7,7-difluoro-5-methyl-8,9-dihydro-5H-pyrimido[4,5-b][1,4]diazepin-6(7H)-one]
17 | ≤ 2 | CCN1CC(NC(=O)c2ccc(Nc3ncc4c(n3)N(C3CCCC3)CC(F)(F)C(=O)N4C)c(OC)c2)C1 [Compound 128, 4-(9-cyclopentyl-7,7-difluoro-5-methyl-6-oxo-6,7,8,9-tetrahydro-5H-pyrimido[4,5-b][1,4]diazepin-2-ylamino)-N-(1-ethylazetidin-3-yl)-3-methoxybenzamide]
18 | ≤ 2 | COc1cc(C(=O)NN2CCNCC2)ccc1Nc1ncc2c(n1)N(C1CCCCC1)CC(F)(F)C(=O)N2C [Compound 77, 4-(9-cyclohexyl-7,7-difluoro-5-methyl-6-oxo-6,7,8,9-tetrahydro-5H-pyrimido[4,5-b][1,4]diazepin-2-ylamino)-3-methoxy-N-(piperazin-1-yl)benzamide]
19 | > 2 | COc1cc(C(=O)NC2CCN(C)CC2)ccc1Nc1ncc2c(n1)N(C1CCCC1)CC(F)(C(F)(F)F)C(=O)N2C (centres unmarked) [Compound 85, 4-(9-cyclopentyl-7-fluoro-5-methyl-6-oxo-7-(trifluoromethyl)-6,7,8,9-tetrahydro-5H-pyrimido[4,5-b][1,4]diazepin-2-ylamino)-3-methoxy-N-(1-methylpiperidin-4-yl)benzamide]
20 | ≤ 2 | COc1cc(C(=O)NC[C@H](C)O)ccc1Nc1ncc2c(n1)N(C1CCCCC1)CC(F)(F)C(=O)N2C [Compound 63, (S)-4-(9-cyclohexyl-7,7-difluoro-5-methyl-6-oxo-6,7,8,9-tetrahydro-5H-pyrimido[4,5-b][1,4]diazepin-2-ylamino)-N-(2-hydroxypropyl)-3-methoxybenzamide]
21 | ≤ 2 | COc1cc(C(=O)NC2CN(C(C)C)C2)ccc1Nc1ncc2c(n1)N(C1CCCC1)CC(F)(F)C(=O)N2C [Compound 129, 4-(9-cyclopentyl-7,7-difluoro-5-methyl-6-oxo-6,7,8,9-tetrahydro-5H-pyrimido[4,5-b][1,4]diazepin-2-ylamino)-N-(1-isopropylazetidin-3-yl)-3-methoxybenzamide]
22 | ≤ 2 | COc1cc(C(=O)NC2CN(C)C2)ccc1Nc1ncc2c(n1)N(C1CCCC1)CC(C)(F)C(=O)N2C (centres unmarked) [Compound 88, 4-(9-Cyclopentyl-7-fluoro-5,7-dimethyl-6-oxo-6,7,8,9-tetrahydro-5H-pyrimido[4,5-b][1,4]diazepin-2-ylamino)-3-methoxy-N-(1-methylazetidin-3-yl)benzamide]
23 | > 2 | COc1cc(CO)ccc1Nc1ncc2c(n1)N(C1CCCC1)CC(F)(F)CN2C [Compound 137, (4-(9-cyclopentyl-7,7-difluoro-5-methyl-6,7,8,9-tetrahydro-5H-pyrimido[4,5-b][1,4]diazepin-2-ylamino)-3-methoxyphenyl)methanol]

Reference: patent publication US20110201818A1, “POLO-LIKE KINASE INHIBITORS” (TAKEDA PHARMACEUTICAL COMPANY LIMITED, priority 2007, published 2011)
